Source: publication PMC4586642, “CYP450 Enzyme-Mediated Metabolism of TCAS and Its Inhibitory and Induced Effects on Metabolized Enzymes in Vitro” (International Journal of Environmental Research and Public …, 2015)

Columns and labels:
[1] = system: CYP1A; experiment: Induction of CYP1A activity in sandwich-cultured rat hepatocytes (phenacetin probe); conditions: 2.5 µM, 72 h
Protocol: (§1) Rat primary hepatocytes were prepared according to a modified, two-step collagenase perfusion method. Viability of hepatocyte was determined by Trypan Blue exclusion. Only those hepatocyte preparations with viability greater than 90% were used for further studies. Hepatocyte suspensions were prepared with DMEM-F12 containing 10% FBS, 100 U/mL penicillin, 100 µg/mL streptomycin, 1 µM DEX and 4 µg/mL insulin. Then, hepatocyte suspensions were seeded into the pre-coated wells at a density of 1 × 10^6 cells/well in 24-well plates. […] Medium was changed daily. On day 4, the cultured hepatocytes were washed twice with Hank’s balanced salt solution containing 25 mM HEPES and incubated with 0.5 mL of the same buffer containing 50 μM phenacetin and 5 μM midazolam at 37 °C for 1h. At the end of incubation, 0.5 mL aliquots of the media were transferred to 1.5-mL test tubes and stored at −20 °C until analysis. All incubations were conducted in triplicate.
(§2) Results were analyzed by a two-factor ANOVA. A p < 0.05 was considered statistically significant. […] Microsoft Excel (Microsoft, Redmond, WA, USA) was used to calculate IC50 estimates by linear transformation of the raw data. The data were corrected for both background and control activities.

[2] = system: CYP3A; experiment: Induction of CYP3A activity in sandwich-cultured rat hepatocytes (midazolam probe); conditions: 1 mM, 72 h
Protocol: as §1, §2

[3] = system: T1, CYP2C9 (2C9); experiment: Inhibition of isoform-selective probe metabolism (phenacetin 1A2, tolbutamide 2C9, bupropion 2B6, dextromethorphan 2D6, midazolam 3A) in rat liver microsomes (0.4 mg/mL) with an NADPH-generating system, 0.5-500 uM TCAS, 30 min at 37 °C, LC-MS/MS readout.; type: biochemical; conditions: SD, n = 3
T1 construct: native enzyme in rat liver microsomes (RLMs)
Protocol: (§3) The inhibitory effects of TCAS on the activities of CYP1A2, CYP2C9, CYP2D6, CYP2B6 and CYP3A were tested in RLMs and HLMs using probes selective for each isoform. The reaction probes used were as follows: phenacetin for CYP1A2; tolbutamide for CYP2C9; dextromethorphan for CYP2D6; midazolam for CYP3A and bupropion for CYP2B6. Incubation conditions specific to each isoform were linear with time, substrate, and protein concentrations as detailed in our previous studies. Isoform-specific substrate probes were incubated in duplicate at 37 °C with RLMs and HLMs and an NADPH-generating system in the absence (control) or presence of various concentrations (0.5, 1.5, 5, 15, 50, 100, and 500 µM) of TCAS. A 5-min pre-incubation was carried out before the reaction was initiated by adding 0.4 mg/mL of RLMs and HLMs. After incubation for 30 min, the reaction was terminated with 400 μL of ice-cold stop solution.
(§4) Results were analyzed by a two-factor ANOVA. A p < 0.05 was considered statistically significant.

[4] = system: T2, CYP2B6 (2B6); experiment: as above; type: biochemical; conditions: SD, n = 3
T2 construct: native enzyme in rat liver microsomes (RLMs)
Protocol: as §3, §4

[5] = system: T3, CYP3A4 (3A4); experiment: as above; type: biochemical; conditions: SD, n = 3
T3 construct: native enzyme in rat liver microsomes (RLMs)
Protocol: as §3, §4

[6] = system: T4, CYP2D6 (2D6); experiment: as above; type: biochemical; conditions: SD, n = 3
T4 construct: native enzyme in rat liver microsomes (RLMs)
Protocol: as §3, §4

[7] = target: CYP2C9 (Homo sapiens, UniProt P11712); experiment: in vitro; conditions: microsomes, pH 7.4
CYP2C9, sequence (P11712 whole entry): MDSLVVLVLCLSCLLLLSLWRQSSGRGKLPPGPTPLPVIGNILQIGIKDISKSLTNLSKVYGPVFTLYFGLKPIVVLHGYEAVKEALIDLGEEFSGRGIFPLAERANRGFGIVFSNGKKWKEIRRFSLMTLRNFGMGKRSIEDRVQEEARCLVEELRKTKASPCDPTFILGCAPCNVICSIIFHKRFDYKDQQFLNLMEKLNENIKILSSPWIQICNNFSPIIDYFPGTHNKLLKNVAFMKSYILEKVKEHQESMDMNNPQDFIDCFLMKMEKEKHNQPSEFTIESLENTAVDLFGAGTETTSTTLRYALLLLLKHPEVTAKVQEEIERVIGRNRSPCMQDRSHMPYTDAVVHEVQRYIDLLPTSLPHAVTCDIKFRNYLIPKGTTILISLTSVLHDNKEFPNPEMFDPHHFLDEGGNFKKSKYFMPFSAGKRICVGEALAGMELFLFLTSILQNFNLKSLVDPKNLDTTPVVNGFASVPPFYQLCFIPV
Protocol: (§5) Inhibitor stock solutions prepared in appropriate solvents accounted for 0.4% organic solvent in the final incubation for 30 min at 37 °C with gentle shaking before stopping with 400 μL ice-cold stop solution (1:1 (v:v) mixture of acetonitrile and methanol) containing 50 ng/mL tolbutamide (IS). After vortexing for 30 seconds, and centrifugation at 16,000 g for 10 min, the supernatant was collected and analyzed by LC-MS/MS as described above. […] All incubations were conducted in triplicate.

[8] = target: CYP1A2 (Homo sapiens, UniProt P05177); experiment: TCAS incubation with human liver microsomes plus CYP1A2-selective inhibitor; conditions: pH 7.4, probe TCAS (100 µM)
CYP1A2, sequence (P05177 whole entry): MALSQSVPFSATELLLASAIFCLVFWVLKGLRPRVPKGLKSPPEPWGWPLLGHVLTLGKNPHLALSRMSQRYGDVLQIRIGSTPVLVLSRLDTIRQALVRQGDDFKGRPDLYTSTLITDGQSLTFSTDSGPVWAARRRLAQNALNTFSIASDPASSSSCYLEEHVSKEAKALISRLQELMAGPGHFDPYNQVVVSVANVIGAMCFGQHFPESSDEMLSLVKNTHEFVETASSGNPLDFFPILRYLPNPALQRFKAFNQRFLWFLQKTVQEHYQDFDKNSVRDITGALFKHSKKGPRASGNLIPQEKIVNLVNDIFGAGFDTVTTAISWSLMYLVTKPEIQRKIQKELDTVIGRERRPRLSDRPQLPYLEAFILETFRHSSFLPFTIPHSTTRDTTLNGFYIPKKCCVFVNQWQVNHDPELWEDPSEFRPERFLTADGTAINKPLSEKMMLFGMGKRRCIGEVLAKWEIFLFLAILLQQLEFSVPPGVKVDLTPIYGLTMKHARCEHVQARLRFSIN
Protocol: as §5

Cc1ccc2cc3c(ccc4ccccc43)c3c2c1CC3 [3-MC, 3-methylcholanthrene]
mean induction of CYP1A activity compared with control cells [1]: 23.8 fold

CCC1(c2ccccc2)C(=O)NC(=O)NC1=O [PB, phenobarbital]
mean induction of CYP3A activity compared with control cells [2]: 5.1 fold

O=S(=O)(O)c1cc2c(O)c(c1)Sc1cc(S(=O)(=O)O)cc(c1O)Sc1cc(S(=O)(=O)O)cc(c1O)Sc1cc(S(=O)(=O)O)cc(c1O)S2 [TCAS, Thiacalix[4]arene tetrasulfonate]
IC50 [3]: 383 ± 23.5 µM | IC50 [4]: 1700 ± 103 µM | IC50 [5]: 2420 ± 235 µM | IC50 [6]: 196 ± 17.6 µM

Nc1ccc(S(=O)(=O)Nc2ccnn2-c2ccccc2)cc1 [sulfaphenazole]
inhibition at 30 min, 60 µM [7]: 51.7%

O=c1cc(-c2ccccc2)oc2c1ccc1ccccc12 [α-Naphthoflavone]
inhibition at 30 min, 6 µM [8]: 54.9%
